# Data taken from patent US20190021976A1, “COMPOSITION FOR PREVENTING, IMPROVING OR TREATING PHOTOAGING OF SKIN COMPRISING DHPV” (SUNGKWANG MEDICAL FOUNDATION, priority 2016, published 2019).
# Legend:
# [1] = tested on: IVL (involucrin); test: Western blot of IVL (involucrin) expression in UV-irradiated human skin cells; format: cell-based
# Description: (§1) First, aging was induced by irradiation with 0.1 J/cm^2 UV on human skin cells (hypodermis and epidermis were separated using HaCaT cell line purchased from ATCC and human body derived Foreskin, and primary cell culture was used). Next, DHPV, a metabolite of cacao, prepared in 1-1 was treated 0.5, 1 nM, respectively, and cells were obtained.
# The expression level of IVL (involucrin) which is one of aging markers of epidermal cells was confirmed by Western blot. Cells were degraded using cell dissolution buffer containing protease inhibitor cocktail kit (P3100-005; GenDEPOT, Barker, Tex.), and phosphatase inhibitor (sc-45065; Santa Cruz Biotechnology, Santa Cruz, Calif.) (#9803; Cell SignalingTechnology, Danvers, Mass.). The aliquot containing 25 ug of cell lysates was separated by electrophoresis on SDS-polyacrylamide gel, and then transferred to nitrocellulose membrane (Amersham, Buckinghamshire, UK) for 180 min at 75 V and […] on a transfer buffer (25 mM Tris, 192 mM glycine, 20% [v/v] methanol [pH 8.3]). The membrane was blocked with PBS of 3% (w/v) BSA containing 0.1% (v/v) Tween-20 for 60 min, and then cultured with anti-involucrin (Santacruz, sc28557) antibody. HRP-combined goat anti-rabbit IgG (1:1000; sc 2004, SantaCruz) was used as a secondary antibody. ECL lumi Femto solution A/B (Dogen, Seoul, Korea) was used to develop blots.
# [2] = tested on: Involucrin (IVL) DNA promoter region; test: Methylation specific PCR of IVL promoter in UV-irradiated human skin cells; format: cell-based; settings: FIG. 4
# Source text: The aging was induced by irradiation with 0.1 J/cm^2 UV on human skin cells (hypodermis and epidermis were separated using HaCaT cell line purchased from ATCC and human body derived Foreskin, and primary cell culture was used). DNA of the cells was extracted using NucleoSin® Tissue Kit (Macherey-Nagel, Düren, Germany). The extracted DNA was quantified using Nano Drop and its quality was confirmed. In the extracted DNA, unmethylated Cytosine residues were converted to Uracil residues by treating Bisulfite using EZ DNA Methylation-Lightning™ Kit (Zymoresearch, CA, USA) for methylation analysis.
# Distilled water was added to Bisulfited DNA 100 ng, primer pair (20 pmole) respectively, 1 uL, TaKaRa EpiTaq HS (5 U/μl) 0.25 uL, 10× EpiTaq PCR Buffer (Mg2^+ free) 5 uL, 25 mM MgCl2 5 uL, dNTP Mixture (2.5 mM each) 6 uL to be 50 uL of the final volume, and then after reacting for […] at 98° C., the procedure of 10 sec at 98° C., 1 min at 55° C., and 30 sec at 72° C. as 40 cycles was repeated and reacted. Then, after extending for 5 min at 72° C., the result was analyzed in 2% (w/v) agarose gel.
# Methylation of IVL promoter by DHPV and relative methylation tendency were analyzed by methylation specific PCR which can relatively compare methylation or non-methylation of genes according to band intensity on the electrophoresis. […]
# [3] = tested on: PFN1; test: Western blot of PFN1 expression in UV-irradiated human skin cells; format: cell-based; settings: 0.1 J/cm^2 UV, DHPV 0.5, 1 nM, FIG. 2
# Description: as §1
# The expression level of PFN1 as a novel aging marker of epidermal cells was confirmed with Western blot by the same method as the above method except using anti-PFN1 (Abcam, ab118984) antibody instead of anti-involucrin (Santacruz, sc28557) antibody and HRP-combined goat anti-mouse IgG (1:3000; sc 2005, SantaCruz) instead of HRP-combined goat anti-rabbit IgG (1:1000; sc 2004, SantaCruz).
# [4] = tested on: MMP-1; test: MMP-1 real time PCR in UVB-irradiated human derived hypodermis fibroblasts; format: cell-based; settings: medium containing DHPV for 24 hrs, FIG. 3A
# Description: (§2) First, human derived hypodermis fibroblasts (hypodermis and epidermis were separated using human body derived Foreskin and the primary cell culture was used) were cultured in the DMEM medium containing 10% FBS (fetal bovine serum), and then cultured in serum free media for 24 hrs and UVB was irradiated. Next, cells were cultured in a medium containing serum or a medium containing 1-41M DHPV for 24 hrs, thereby collecting cells.
# In order to confirm changes of mRNA expression level of MMP-1, mRNA was obtained using RNAiso Plus (Takara Bio Inc., Shiga, Japan). Next, CDNA was synthesized and prepared using PrimeScript™ 1st Plus (Takara Bio Inc., Shiga, Japan), and real time PCR was conducted using IQ SYBR (Bio-Rad Laboratories). The primer sequences used in conducting PCR were as same as the following Table 1.
# [5] = tested on: HaCaP cell line and hypodermal cells isolated from human derived foreskin; test: Biostability: cell viability (Ez-cytox); format: cell-based; settings: FIG. 5
# Description: In order to evaluate DHPV biostability, HaCaP cell line and hypodermal cells isolated from human derived foreskin were inoculated (2×10^4 cell each) and cultured on the 24 well plate and stabilized. Then, the cells were cultured in serum free media for 24 hrs and 48 hrs.
# [6] = tested on: AP-1; test: AP-1 luciferase reporter gene assay in UVB-irradiated hypodermis fibroblasts; format: cell-based, human; settings: DHPV treatment, FIG. 3B
# Description: as §2
# AP-1 was obtained by inoculating pGF-AP1-mCMV-EF1-Puro vector (System Biosciences, CA) and a package vector, pMD2.0G and psPAX (Addgene Inc, Cambridge, Mass.) to HEK293T cell and in 36 hrs, viral particles were obtained using […] injection filter, in order to measure activity changes by UVB irradiation through luciferase reporter gene assay. Next, it was inoculated to hypodermis fibroblasts, and cells that injection with puromycin (Sigma, MO, […]) was successes were obtained. Then the activity of AP-1 was measured by using luciferase assay kit (Promega, Madison, Wis.) after culturing cells in the same manner with the hypodermal fibroblast culturing method and treating with DHPV.
compound,measurement,setting,value
"O=C1CCC(Cc2ccc(O)c(O)c2)O1 (centres unmarked) [DHPV, 5-(3′,4′-Dihydroxyphenyl)-Γ-valerolactone]",concentration exhibiting excellent skin aging-preventing function,[1]; based on skin cells,1 nM
same,expression level of the IVL marker (amount of UV-increased IVL),"[1]; human skin cells, 0.1 J/cm^2 UV, DHPV 0.5, 1 nM, FIG. 2",reduced in a concentration-dependent manner
same,methylation of Involucrin (IVL) DNA promoter region induced by photoaging,"[2]; 0.1 J/cm^2 UV, methylation specific PCR",inhibited methylation
same,intensity of methylation band,"[2]; UV treated cells when treating DHPV, electrophoresis",decreased
same,expression level of the PFN1 marker,[3],increased in a concentration-dependent manner
same,mRNA expression of MMP-1,[4],recovered similarly to the control group
same,biostability (cell viability),[5],shown similarly to that of control group
same,activity of AP-1,[6],recovered similarly to the control group
